# Experimental data taken from patent US9346815B2, “5-chloro-2-difluoromethoxyphenyl pyrazolopyrimidine compounds, compositions and methods of use thereof” (Genentech, Inc., priority 2014, dated 2016).
# Where a name gives a salt, the structure may show the parent alone.
# Columns and labels:
# [1] = target: isolated recombinant JAK1 kinase domain (Homo sapiens (Human), UniProt P23458); experiment: JAK1 enzyme assay (Caliper LabChip, peptide phosphorylation); type: biochemical; conditions: isolated recombinant JAK1 kinase domain, 25 μM ATP
# isolated recombinant JAK1 kinase domain, sequence (P23458 875-1153): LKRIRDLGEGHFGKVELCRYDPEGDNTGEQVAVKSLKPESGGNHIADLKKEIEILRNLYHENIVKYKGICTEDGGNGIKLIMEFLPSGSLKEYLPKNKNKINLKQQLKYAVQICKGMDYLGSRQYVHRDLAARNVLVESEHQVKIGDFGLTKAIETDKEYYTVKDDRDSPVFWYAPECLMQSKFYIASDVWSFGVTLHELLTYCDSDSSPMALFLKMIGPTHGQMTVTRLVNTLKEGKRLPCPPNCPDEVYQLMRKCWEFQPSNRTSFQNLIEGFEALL
# [2] = test system: JAK1-dependent STAT6 phosphorylation downstream of IL-13 stimulation in BEAS-2B human bronchial epithelial cells; experiment: JAK1 pathway assay in BEAS-2B cells (IL-13-pSTAT6, MSD); type: cell-based; conditions: read-out: IL13-pSTAT6 EC50 (uM)_BEAS-2B
# In short: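 Cells were preincubated with compounds (0.2% DMSO) for 30 min (TF-1, GM-CSF-starved overnight, serum-free OptiMEM, 300,000 cells/well) or 1 h (BEAS-2B, complete medium, 100,000 cells/well) at 37 °C.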
# [3] = target: isolated recombinant JAK2 kinase domain (Homo sapiens (Human), UniProt O60674); experiment: JAK2 enzyme assay (Caliper LabChip, peptide phosphorylation); type: biochemical; conditions: 25 μM ATP
# isolated recombinant JAK2 kinase domain, sequence (O60674 849-1124): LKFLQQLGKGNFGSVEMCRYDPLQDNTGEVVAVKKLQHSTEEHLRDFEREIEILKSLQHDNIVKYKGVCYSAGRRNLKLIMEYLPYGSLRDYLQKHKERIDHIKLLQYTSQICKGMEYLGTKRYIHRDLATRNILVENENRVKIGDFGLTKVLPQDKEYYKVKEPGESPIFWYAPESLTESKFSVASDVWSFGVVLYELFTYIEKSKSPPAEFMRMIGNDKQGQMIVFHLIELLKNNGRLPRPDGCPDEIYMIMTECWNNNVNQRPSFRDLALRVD
Ki [1],Ki [3],Compound,EC50 [2]
0.7 nM,1.24 nM,"CC(C)N1CCN(C(=O)Cn2cc(NC(=O)c3cnn4cccnc34)c(-c3cc(Cl)ccc3OC(F)F)n2)CC1 [Example 373, N-[3-[5-chloro-2-(difluoromethoxy)phenyl]-1-[2-oxo-2-[4-(propan-2-yl)piperazin-1-yl]ethyl]-1H-pyrazol-4-yl]pyrazolo[1,5-a]pyrimidine-3-carboxamide]",0.0342 µM
0.6 nM,1.25 nM,"CC1(N2CCOCC2)CCN(C(=O)Cn2cc(NC(=O)c3cnn4cccnc34)c(-c3cc(Cl)ccc3OC(F)F)n2)CC1 [Example 410, N-(3-(5-chloro-2-(difluoromethoxy)phenyl)-1-(2-(4-methyl-4-morpholinopiperidin-1-yl)-2-oxoethyl)-1H-pyrazol-4-yl)pyrazolo[1,5-a]pyrimidine-3-carboxamide]",0.0183 µM
0.19 nM,0.2 nM,"O=C(Nc1cn(CC(=O)N2CCC(C(=O)O)CC2)nc1-c1cc(Cl)ccc1OC(F)F)c1cnn2cccnc12 [Example 342, 1-(2-[3-[5-chloro-2-(difluoromethoxy)phenyl]-4-[pyrazolo[1,5-a]pyrimidine-3-amido]-1H-pyrazol-1-yl]acetyl)piperidine-4-carboxylic acid]",1.81 µM
0.83 nM,0.4 nM,"O=C(Nc1cn(CCN[C@@H]2CCOC2)nc1-c1cc(Cl)ccc1OC(F)F)c1cnn2cccnc12 [Example 402, N-(3-(5-chloro-2-(difluoromethoxy)phenyl)-1-(2-((R)-tetrahydrofuran-3-ylamino)ethyl)-1H-pyrazol-4-yl)pyrazolo[1,5-a]pyrimidine-3-carboxamide]",0.0187 µM
0.3 nM,0.15 nM,"O=C(Nc1cn(Cc2cn(C3CCN(C4CCOC4)CC3)nn2)nc1-c1cc(Cl)ccc1OC(F)F)c1cnn2cccnc12 (stereo not drawn) [Example 455, N-(3-(5-chloro-2-(difluoromethoxy)phenyl)-1-((1-(1-(tetrahydrofuran-3-yl)piperidin-4-yl)-1H-1,2,3-triazol-4-yl)methyl)-1H-pyrazol-4-yl)pyrazolo[1,5-a]pyrimidine-3-carboxamide]",0.021 µM
0.79 nM,2.51 nM,"CN(C)C(=O)CN1CCC(CN2CCN(C(=O)Cn3cc(NC(=O)c4cnn5cccnc45)c(-c4cc(Cl)ccc4OC(F)F)n3)CC2)CC1 [Example 428, N-(3-(5-chloro-2-(difluoromethoxy)phenyl)-1-(2-(4-((1-(2-(dimethylamino)-2-oxoethyl)piperidin-4-yl)methyl)piperazin-1-yl)-2-oxoethyl)-1H-pyrazol-4-yl)pyrazolo[1,5-a]pyrimidine-3-carboxamide]",0.0453 µM
0.62 nM,0.39 nM,"O=C(Nc1cn(CCNCc2ccccn2)nc1-c1cc(Cl)ccc1OC(F)F)c1cnn2cccnc12 [Example 314, N-[3-[5-chloro-2-(difluoromethoxy)phenyl]-1-[2-[(pyridin-2-ylmethyl)amino]ethyl]-1H-pyrazol-4-yl]pyrazolo[1,5-a]pyrimidine-3-carboxamide]",0.0995 µM
1.7 nM,0.43 nM,"CN(C)CC(=O)Cn1cc(NC(=O)c2cnn3cccnc23)c(-c2cc(Cl)ccc2OC(F)F)n1 [Example 411, N-(3-(5-chloro-2-(difluoromethoxy)phenyl)-1-(3-(dimethylamino)-2-oxopropyl)-1H-pyrazol-4-yl)pyrazolo[1,5-a]pyrimidine-3-carboxamide]",0.0228 µM
0.41 nM,1.3 nM,"O=C(Nc1cn(CC(=O)N2CCC(OCC(=O)N3CCOCC3)CC2)nc1-c1cc(Cl)ccc1OC(F)F)c1cnn2cccnc12 [Example 453, N-(3-(5-chloro-2-(difluoromethoxy)phenyl)-1-(2-(4-(2-morpholino-2-oxoethoxy)piperidin-1-yl)-2-oxoethyl)-1H-pyrazol-4-yl)pyrazolo[1,5-a]pyrimidine-3-carboxamide]",0.0304 µM
0.57 nM,0.81 nM,"CN(CCC#N)C1CCC(=CCn2cc(NC(=O)c3cnn4cccnc34)c(-c3cc(Cl)ccc3OC(F)F)n2)CC1 (stereo not drawn) [Example 420, N-(3-(5-chloro-2-(difluoromethoxy)phenyl)-1-(2-(4-((2-cyanoethyl)(methyl)amino)cyclohexylidene)ethyl)-1H-pyrazol-4-yl)pyrazolo[1,5-a]pyrimidine-3-carboxamide]",0.0301 µM
0.46 nM,0.94 nM,"O=C1C=C(CN2CCN(C(=O)Cn3cc(NC(=O)c4cnn5cccnc45)c(-c4cc(Cl)ccc4OC(F)F)n3)CC2)CO1 [Example 351, N-[3-[5-chloro-2-(difluoromethoxy)phenyl]-1-(2-oxo-2-[4-[(5-oxo-2,5-dihydrofuran-3-yl)methyl]piperazin-1-yl]ethyl)-1H-pyrazol-4-yl]pyrazolo[1,5-a]pyrimidine-3-carboxamide]",0.0365 µM
0.36 nM,0.71 nM,"O=C1CN(C2CCN(C(=O)Cn3cc(NC(=O)c4cnn5cccnc45)c(-c4cc(Cl)ccc4OC(F)F)n3)CC2)CCN1 [Example 407, N-(3-(5-chloro-2-(difluoromethoxy)phenyl)-1-(2-oxo-2-(4-(3-oxopiperazin-1-yl)piperidin-1-yl)ethyl)-1H-pyrazol-4-yl)pyrazolo[1,5-a]pyrimidine-3-carboxamide]",0.172 µM
0.65 nM,0.89 nM,"N#CCCNC1CCC(=CCn2cc(NC(=O)c3cnn4cccnc34)c(-c3cc(Cl)ccc3OC(F)F)n2)CC1 (stereo not drawn) [Example 421, N-(3-(5-chloro-2-(difluoromethoxy)phenyl)-1-(2-(4-(2-cyanoethylamino)cyclohexylidene)ethyl)-1H-pyrazol-4-yl)pyrazolo[1,5-a]pyrimidine-3-carboxamide]",0.0498 µM
0.49 nM,1.41 nM,"CN(CCCC#N)C1CCN(C(=O)Cn2cc(NC(=O)c3cnn4cccnc34)c(-c3cc(Cl)ccc3OC(F)F)n2)CC1 [Example 464, N-(3-(5-chloro-2-(difluoromethoxy)phenyl)-1-(2-(4-((3-cyanopropyl)(methyl)amino)piperidin-1-yl)-2-oxoethyl)-1H-pyrazol-4-yl)pyrazolo[1,5-a]pyrimidine-3-carboxamide]",0.0095 µM
3.32 nM,3.72 nM,"CC(C)(C)OC(=O)N1CC[C@H](n2cc(NC(=O)c3cnn4cccnc34)c(-c3cc(Cl)ccc3OC(F)F)n2)[C@@H](O)C1 (single isomer, unassigned) [Example 355]",0.0678 µM
0.37 nM,0.31 nM,"CSc1ccc(CNCCn2cc(NC(=O)c3cnn4cccnc34)c(-c3cc(Cl)ccc3OC(F)F)n2)cc1 [Example 346, N-[3-[5-chloro-2-(difluoromethoxy)phenyl]-1-[2-([[4-(methylsulfanyl)phenyl]methyl]amino)ethyl]-1H-pyrazol-4-yl]pyrazolo[1,5-a]pyrimidine-3-carboxamide formate]",0.115 µM
0.31 nM,0.6 nM,"O=C(Nc1cn(CC(=O)N2CCN(Cc3ccccc3)CC2)nc1-c1cc(Cl)ccc1OC(F)F)c1cnn2cccnc12 [Example 320, N-[1-[2-(4-benzylpiperazin-1-yl)-2-oxoethyl]-3-[5-chloro-2-(difluoromethoxy)phenyl]-1H-pyrazol-4-yl]pyrazolo[1,5-a]pyrimidine-3-carboxamide]",0.0473 µM
0.4 nM,0.84 nM,"N#CCCCN1CCN(C(=O)Cn2cc(NC(=O)c3cnn4cccnc34)c(-c3cc(Cl)ccc3OC(F)F)n2)CC1 [Example 461, N-(3-(5-chloro-2-(difluoromethoxy)phenyl)-1-(2-(4-(3-cyanopropyl)piperazin-1-yl)-2-oxoethyl)-1H-pyrazol-4-yl)pyrazolo[1,5-a]pyrimidine-3-carboxamide]",0.0117 µM
2.91 nM,1.37 nM,"O=C(Nc1cn(CCN2CCNCC2=O)nc1-c1cc(Cl)ccc1OC(F)F)c1cnn2cccnc12 [Example 417, N-(3-(5-chloro-2-(difluoromethoxy)phenyl)-1-(2-(2-oxopiperazin-1-yl)ethyl)-1H-pyrazol-4-yl)pyrazolo[1,5-a]pyrimidine-3-carboxamide]",0.0934 µM
0.72 nM,1.05 nM,"CC(C)(C)OC(=O)N1CC[C@@H](n2cc(NC(=O)c3cnn4cccnc34)c(-c3cc(Cl)ccc3OC(F)F)n2)[C@H](O)C1 (single isomer, unassigned) [Example 354]",0.024 µM
0.47 nM,0.9 nM,"O=C(Nc1cn(CC(=O)N2CCN(CC3CCOCC3)CC2)nc1-c1cc(Cl)ccc1OC(F)F)c1cnn2cccnc12 [Example 458, N-(3-(5-chloro-2-(difluoromethoxy)phenyl)-1-(2-oxo-2-(4-((tetrahydro-2H-pyran-4-yl)methyl)piperazin-1-yl)ethyl)-1H-pyrazol-4-yl)pyrazolo[1,5-a]pyrimidine-3-carboxamide]",0.0081 µM
0.93 nM,0.66 nM,"O=C(Nc1cn([C@@H]2CCNC[C@H]2O)nc1-c1cc(Cl)ccc1OC(F)F)c1cnn2cccnc12 [Example 358, N-[3-[5-chloro-2-(difluoromethoxy)phenyl]-1-[(3R,4R)-3-hydroxypiperidin-4-yl]-1H-pyrazol-4-yl]pyrazolo[1,5-a]pyrimidine-3-carboxamide]",0.0133 µM
1.73 nM,0.68 nM,"O=C(Nc1cn(CC(O)CN2CCCCC2)nc1-c1cc(Cl)ccc1OC(F)F)c1cnn2cccnc12 (stereo not drawn) [Example 405, N-(3-(5-chloro-2-(difluoromethoxy)phenyl)-1-(2-hydroxy-3-(piperidin-1-yl)propyl)-1H-pyrazol-4-yl)pyrazolo[1,5-a]pyrimidine-3-carboxamide]",0.0257 µM
